Laboratory results taken from article PMC9635925, “Biological screening of a unique drug library targeting MRGPRX2” (Frontiers in Immunology, 2022).
Positions count from the first letter of the chain named. Structures can show the parent of a compound that is named as a salt.

Key:
[1] = molecular target: T1, MRGPRX2-WT (wild-type MRGPRX2 receptor) (Homo sapiens, UniProt Q96LB1); experiment: Primary HTS, Ca2+ mobilization (fluorescence ratio, B-score) in HEK293-Gα15 cells stably expressing wild-type MRGPRX2; format: cell-based; details: 10 μM compound
T1 construct: expressed in transfected cells
T1 sequence (Q96LB1 1-330): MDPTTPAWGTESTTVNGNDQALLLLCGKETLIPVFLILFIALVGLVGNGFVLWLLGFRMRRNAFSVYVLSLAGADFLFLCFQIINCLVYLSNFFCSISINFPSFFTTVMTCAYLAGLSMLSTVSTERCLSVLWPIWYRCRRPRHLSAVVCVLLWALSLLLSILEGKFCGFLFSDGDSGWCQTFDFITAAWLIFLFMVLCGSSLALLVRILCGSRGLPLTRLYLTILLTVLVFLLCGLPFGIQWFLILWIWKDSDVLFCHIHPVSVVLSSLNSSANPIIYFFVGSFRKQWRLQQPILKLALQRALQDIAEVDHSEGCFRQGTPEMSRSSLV
Description: (§1) We performed an experimental HTS on the Johns Hopkins Drug Library, which includes 1,811 (57%) FDA-approved drugs among 3,456 total compounds (28% of all known drugs worldwide) ([15]). We performed the HTS at the Johns Hopkins University ChemBioCORE Facility and employed HEK293-Gα15 cell lines that stably expressed MRGPRX2 protein.
(§2) We utilized 10 μM compounds (each compound was tested in triplicate) and calculated the compound effect using the signal-to-background fluorescence ratio (see Supplementary Methods).
(§3) In the HTS, we determined MRGPRX2 activation by a Ca^2+ mobilization assay that recorded a fluorescence change by utilizing a Functional Drug Screening System (FDSS 6000; Hamamatsu); we evaluated the compound effect using the calculated fluorescence ratio. We further applied the B-score normalization, which provided robust corrections for variation in fluorescence ratio ([22]).
(§4) We performed an experimental high-throughput screening (HTS) on the Johns Hopkins Drug Library (JHDL), which includes 1,811 (57%) FDA-approved drugs among 3,456 total compounds (28% of all known drugs worldwide). The remaining compounds in JHDL are catalogued in one or more of the resources below: British Approved Names (BAN); Dénominations Communes Françaises (DCF); International Nonproprietary Names (INN); Japanese Adopted Names (JAN); MI (Merck Index); National Formulary drug name (NF); and United States Accepted Names (USAN). The JHU drug library is stocked in 96 well plates at 10 mM in 100% DMSO and stored at -80 °C. We used a final concentration of 10 uM for each compound and DMSO concentration of 0.1% (tested in triplicate). […] We evaluated compound effect using the calculated fluorescence ratio. We further calculated B-scores, which are a relative potency score similar to Z scores in that they are the ratio of an adjusted raw value in the numerator to a measure of variability in the denominator.

[2] = molecular target: T2, MRGPRX2-MUT (MRGPRX2 N62S mutation) (Homo sapiens, UniProt Q96LB1, N62S); experiment: Primary HTS, Ca2+ mobilization (fluorescence ratio, B-score) in HEK293-Gα15 cells stably expressing the MRGPRX2 N62S mutation; format: cell-based; details: for B-scores (MUT): 10 μM compound, MRGPRX2-MUT (N62S) cells; for Change of B-scores (%): 10 μM
T2 construct: expressed in transfected cells
T2 sequence (Q96LB1 1-330 N62S): T1 sequence (Q96LB1 1-330) with N62S
Description: as §1, §2, §3, §4

[3] = MRGPRX2-MUT in comparison to MRGPRX2-WT cells, Supplementary Table 1
[4] = MRGPRX2-MUT in comparison to MRGPRX2-WT cells, Table 1
[5] = MRGPRX2-MUT versus MRGPRX2-WT cells, Supplementary Table 2

## CN(C)CCN1C(=O)c2ccccc2N(C)c2ccccc21 [Dibenzepin]
[1]; Supplementary Table 1
  B-scores (WT): 25.48
[1]; Table 1
  B-scores (WT): 25.48
[2]; Table 1
  B-scores (MUT): -1.62
[2]; [3]
  Change of B-scores (%): -106.37%
[2]; [4]
  Change of B-scores (%): -106.37%

## CN1CCN(c2cc3c(cc2F)c(=O)c(C(=O)O)cn3-c2ccc(F)cc2)CC1 [Difloxacin Hydrochloride]
[1]; Supplementary Table 1
  B-scores (WT): 44.81
[1]; Supplementary Table 2
  B-scores (WT): 44.81
[1]; Table 1
  B-scores (WT): 44.81
[2]; Supplementary Table 1
  B-scores (MUT): 1.54
[2]; Supplementary Table 2
  B-scores (MUT): -1.54
[2]; Table 1
  B-scores (MUT): -1.54
[2]; [3]
  Change of B-scores (%): -103.45%
[2]; [4]
  Change of B-scores (%): -103.45%
[2]; [5]
  Change of B-scores (%): -103.45%

## COc1ccc([C@@H]2Sc3ccccc3N(CCN(C)C)C(=O)[C@@H]2OC(C)=O)cc1 [Diltiazem Hydrochloride]
[1]; Supplementary Table 1
  B-scores (WT): 22.99
[2]; [3]
  Change of B-scores (%): -104.18%

## CCCCC[C@H](O)/C=C/[C@H]1[C@H](O)CC(=O)[C@@H]1C/C=C\CCCC(=O)O [Dinoprostone (Prostaglandin E2)]
[1]; Supplementary Table 1
  B-scores (WT): 40.59
[2]; Supplementary Table 1
  B-scores (MUT): 17.30
[2]; [3]
  Change of B-scores (%): -57.38%

## CN(C)CCOC(c1ccccc1)c1ccccc1 [Diphenhydramine Hydrochloride]
[1]; Supplementary Table 2
  B-scores (WT): 10.26
[2]; Supplementary Table 2
  B-scores (MUT): 0.66
[2]; [5]
  Change of B-scores (%): -93.55%

## CN(C)CCC=C1c2ccccc2COc2ccccc21 [Doxepin Hydrochloride]
[1]; Supplementary Table 2
  B-scores (WT): 12.95
[2]; Supplementary Table 2
  B-scores (MUT): 1.85
[2]; [5]
  Change of B-scores (%): -85.71%

## CNCC[C@H](Oc1cccc2ccccc12)c1cccs1 [Duloxetine Hydrochloride]
[1]; Supplementary Table 1
  B-scores (WT): 44.22
[2]; Supplementary Table 1
  B-scores (MUT): 0.64
[2]; [3]
  Change of B-scores (%): -98.55%

## CNC[C@H](O)c1ccc(O)c(O)c1 [Epinephrine Bitartrate]
[1]; Supplementary Table 1
  B-scores (WT): 25.60
[1]; Supplementary Table 2
  B-scores (WT): 25.6
[2]; Supplementary Table 1
  B-scores (MUT): 11.72
[2]; Supplementary Table 2
  B-scores (MUT): 11.72
[2]; [3]
  Change of B-scores (%): -54.24%
[2]; [5]
  Change of B-scores (%): -54.24%

## CNC[C@H](O)c1ccc(O)c(O)c1 [Epinephrine]
[1]; Supplementary Table 2
  B-scores (WT): 17.52
[2]; Supplementary Table 2
  B-scores (MUT): 8.28
[2]; [5]
  Change of B-scores (%): -52.73%

## CCCCC[C@H](O)/C=C/[C@@H]1[C@H]2C/C(=C/CCCC(=O)O)O[C@H]2C[C@H]1O [Epoprostenol]
[1]; Supplementary Table 1
  B-scores (WT): 27.44
[2]; Supplementary Table 1
  B-scores (MUT): 10.83
[2]; [3]
  Change of B-scores (%): -60.51%

## CC(Cc1ccc(O)cc1)NCC(O)c1cc(O)cc(O)c1 (stereo not shown) [Fenoterol Hydrobromide]
[1]; Supplementary Table 1
  B-scores (WT): 20.31
[1]; Supplementary Table 2
  B-scores (WT): 20.31
[2]; Supplementary Table 2
  B-scores (MUT): -0.03
[2]; [3]
  Change of B-scores (%): -100.16%
[2]; [5]
  Change of B-scores (%): -100.16%

## CC(Cc1ccc(O)cc1)NCC(O)c1cc(O)cc(O)c1 (stereo not shown) [Fenoterol]
[1]; Supplementary Table 1
  B-scores (WT): 23.48
[1]; Supplementary Table 2
  B-scores (WT): 23.48
[2]; Supplementary Table 1
  B-scores (MUT): 13.78
[2]; Supplementary Table 2
  B-scores (MUT): 13.78
[2]; [3]
  Change of B-scores (%): -41.33%
[2]; [5]
  Change of B-scores (%): -41.33%

## CNCCC(Oc1ccc(C(F)(F)F)cc1)c1ccccc1 (stereo not shown) [Fluoxetine]
[1]; Supplementary Table 1
  B-scores (WT): 36.30
[1]; Table 1
  B-scores (WT): 36.30
[2]; Supplementary Table 1
  B-scores (MUT): 7.14
[2]; Table 1
  B-scores (MUT): 7.14
[2]; [3]
  Change of B-scores (%): -80.32%
[2]; [4]
  Change of B-scores (%): -80.32%

## COc1ccc2c3c1O[C@H]1C[C@@H](O)C=C[C@@]31CCN(C)C2 [Galantamine Hydrobromide]
[1]; Supplementary Table 1
  B-scores (WT): 19.90
[2]; Supplementary Table 1
  B-scores (MUT): 1.33
[2]; [3]
  Change of B-scores (%): -93.34%

## COc1ccc2c3c1O[C@H]1C[C@@H](O)C=C[C@@]31CCN(C)C2 [Galantamine]
[1]; Supplementary Table 1
  B-scores (WT): 40.50
[2]; Supplementary Table 1
  B-scores (MUT): 1.25
[2]; [3]
  Change of B-scores (%): -96.90%

## COc1ccc(CCN(C)CCCC(C#N)(c2cc(OC)c(OC)c(OC)c2)C(C)C)cc1OC (stereo not shown) [Gallopamil]
[1]; Supplementary Table 2
  B-scores (WT): 7.16
[2]; Supplementary Table 2
  B-scores (MUT): 0.2
[2]; [5]
  Change of B-scores (%): -97.19%

## CN1[C@@H]2CC(OC(=O)[C@H](CO)c3ccccc3)C[C@H]1[C@@H]1O[C@@H]12.Cl (stereo partly shown) [Hyoscine hydrochloride]
[1]; Supplementary Table 2
  B-scores (WT): 11.2
[2]; Supplementary Table 2
  B-scores (MUT): 0.57
[2]; [5]
  Change of B-scores (%): -94.9%

## CN1[C@@H]2CC[C@H]1CC(OC(=O)[C@H](CO)c1ccccc1)C2.Cl (stereo partly shown) [Hyoscyamine Hydrochloride]
[1]; Supplementary Table 2
  B-scores (WT): 11.54
[2]; Supplementary Table 2
  B-scores (MUT): 0.69
[2]; [5]
  Change of B-scores (%): -94.01%

## CN1[C@@H]2CC[C@H]1C[C@@H](OC(=O)[C@H](CO)c1ccccc1)C2 [Hyoscyamine]
[1]; Supplementary Table 2
  B-scores (WT): 17.72
[2]; Supplementary Table 2
  B-scores (MUT): 0.65
[2]; [5]
  Change of B-scores (%): -96.31%

## CC(=O)[C@]1(O)Cc2c(O)c3c(c(O)c2[C@@H](O[C@H]2C[C@H](N)[C@H](O)[C@H](C)O2)C1)C(=O)c1ccccc1C3=O [Idarubicin hydrochloride]
[1]; Supplementary Table 2
  B-scores (WT): 11.57
[2]; Supplementary Table 2
  B-scores (MUT): 39.57
[2]; [5]
  Change of B-scores (%): 241.86%

## CN(C)CCCN1c2ccccc2CCc2ccccc21 [Imipramine Hydrochloride]
[1]; Supplementary Table 1
  B-scores (WT): 32.17
[1]; Supplementary Table 2
  B-scores (WT): 32.17
[1]; Table 1
  B-scores (WT): 32.17
[2]; Supplementary Table 1
  B-scores (MUT): 16.90
[2]; Supplementary Table 2
  B-scores (MUT): 16.9
[2]; Table 1
  B-scores (MUT): 16.90
[2]; [3]
  Change of B-scores (%): -47.47%
[2]; [4]
  Change of B-scores (%): -47.47%
[2]; [5]
  Change of B-scores (%): -47.47%

## CC(C)CCCC(C)NC(C)C (stereo not shown) [Iproheptine]
[1]; Supplementary Table 1
  B-scores (WT): 26.61
[2]; Supplementary Table 1
  B-scores (MUT): 10.27
[2]; [3]
  Change of B-scores (%): -61.42%

## CCC(NC(C)C)C(O)c1ccc(O)c(O)c1 (stereo not shown) [Isoetharine Mesylate]
[1]; Supplementary Table 1
  B-scores (WT): 29.54
[2]; Supplementary Table 1
  B-scores (MUT): 0.60
[2]; [3]
  Change of B-scores (%): -97.97%

## CC(C)NCC(O)c1ccc(O)c(O)c1 (stereo not shown) [Isoproterenol Hydrochloride]
[1]; Supplementary Table 1
  B-scores (WT): 20.95
[1]; Supplementary Table 1, listed as Isoprenaline hydrochloride
  B-scores (WT): 21.82
[1]; Supplementary Table 2
  B-scores (WT): 20.95
[2]; Supplementary Table 2
  B-scores (MUT): -0.05
[2]; [3]
  Change of B-scores (%): -100.26%
[2]; MRGPRX2-MUT in comparison to MRGPRX2-WT cells, Supplementary Table 1, listed as Isoprenaline hydrochloride
  Change of B-scores (%): -100.25%
[2]; [5]
  Change of B-scores (%): -100.26%
